Measurements as given in patent US4863969A, “Treatment of premalignant lesions and certain malignant tumors” (priority 1985, dated 1989).
Like-named read-outs stand apart in the source and are kept apart here.

Key:
[1] = cited from earlier work
[2] = test system: squamous metaplasia of the vaginal epithelium; test: Antimetaplastic activity in ovarectomized rats (hormone-induced squamous metaplasia, vaginal smear); type: in vivo, female Holtzmann rats; details: for Relative activity (antimetaplastic): all-trans vitamin A acid = 100%; for Antimetaplastic effect (average effective / protective dosage): oral, read 2 days after administration, area method of Behrens and Karber
Procedure: (C) The antimetaplastic activity of compound Ia was determined in rats according to the following method. Female Holtzmann rats weighing approximately 100 g were ovarectomized under Thiogenal narcosis after an adaptation period of 8 days and were used in the experiment after a further 14 days. In each case two animals were placed in a cage and had free access to feed which contained approximately 2000 IU of analytically determined vitamin A. Prior to the oral administration of the test compound the animals were treated subcutaneously each day for 6 successive days with the hormone mixture of 1 μg of estradiol benzoate and 250 μg of testosterone propionate dissolved in 0.1 ml of sesame oil. The parenteral hormone administration led to the formation of a clear granular stage in the vaginal smear, i.e. a squamous metaplasia. 2 days after the oral administration of the test substance the result of the reaction was again read off on the vaginal epithelium. The area method according to Behrens and Karber was employed to calculate the average effective dosages.

[3] = test system: Trachea (rats)/hyperplasia induced by dimethylbenzanthracene; test: Chemically-induced precancerous tissue changes in trachea organ culture (dimethylbenzanthracene-induced hyperplasia); type: cell-based; details: Rattus norvegicus, read-out: Mitotic index, relative to dimethylbenzanthracene control; for activity at 1 µM: 10^-6 M; for activity at 0.1 µM: 10^-7 M; for activity at 0.01 µM: 10^-8 M; for activity at 0.001 µM: 10^-9 M
Procedure: (§1) (D) The activity of compound Ia on chemically-induced precancerous tissue changes was, furthermore, determined in vitro according to the following method. In this experiment prostate glands of mice and trachea of rats cultivated in organ cultures served as the experimental models. In tissues of organ cultures carcinogenic substances bring about after a short period precancerous changes in the form hyperplasias as well as metaplasias and dysplasias. Retinoids, which are administered simultaneously with the carcinogenic compounds or after these, prevent the hyperplasia or metaplasia and dysplasia or even cause these to regress.
(§2) The prostate glands consist of alveoli lined with one row of secretory cells and separated by a thin connective tissue. They were removed from mice aged 3-5 months and cut into lobules of approximately 1.5×1.5×2.0 mm. At least six of these lobules were placed on filter paper and transferred on a metal lattice into small culture chambers. Two of these culture chambers were enclosed in a Petri dish lined with a moist filter paper. The culture chambers were filled with nutrient medium up to the height of the lattice so that the explants were moistened well with the nutrient medium, but were not immersed in this. At the nutrient medium there was used customary Medium 199 supplemented by the addition of 15% serum from newly born calves. The carcinogen (3-methylcholanthrene) was added to this prior to the incubation in a concentration of 4-5 μg/ml of nutrient medium. The cultures were then incubated at 37.5° C. During the incubation they were kept in a Macintosh flask which was gassed with a mixture of 5% CO2 +95% oxygen. In a first series of experiments the carcinogen and compound Ia were combined and the tissue was cultivated for 10-12 days. In a second series the explants were pre-treated with the carcinogen for 10-12 days and thereafter placed in a nutrient medium, which only contained compound Ia, for 4-7 days. The concentration of compound Ia lay in the range of 10^-9 to 10^-6 Mol.
Trachea of rats are cultivated in the same manner and treated with dimethylbenzanthracene as the carcinogen. The mitotic index serves as the parameter of the hyperplasia. With retinoid the mitotic index and the hyperplasias, respectively, are smaller. The results are compiled in Tables IV (prostate) and V (trachea).

[4] = Triglyceride / lipid value in blood plasma of rats; type: in vivo, albino rats
Procedure: In order to detect this activity a dosage of compound Ia was administered five times per dosage to 5 male and 5 female albino rats weighing approximately 150 g by means of a probang within 2 days in intervals of in each case 18 and 6 hours. 18 hours after the last application 1-1,2 ml of blood plasma were removed retroorbitally from the experimental animals. The triglyceride value was determined by enzymatic cleavage of the triglyceride with subsequent determination of the resulting glycerine (colour reaction) by means of Periodchrom triglyceride GPO-PAP.

[5] = test system: Prostate (mouse)/hyperplasia induced by methylcholanthrene; test: Chemically-induced precancerous tissue changes in prostate gland organ culture (methylcholanthrene-induced hyperplasia); type: cell-based; details: read-out: Hyperplastic alveoli, relative to methylcholanthrene control; for activity at 1 µM: 10^-6 M; for activity at 0.1 µM: 10^-7 M; for activity at 0.01 µM: 10^-8 M; for activity at 0.001 µM: 10^-9 M
Procedure: as §1, §2
The activity of compound Ia is quantified by counting the normal and hyperplastic alveoli in sections of the explant. The results are expressed in percentages of hyperplastic alveoli of the total number of alveoli, for example 120 hyperplastic alveoli out of a total of 200 correspond to 60%. In explants treated with retinoids the percentage is usually small. […] The percentage of hyperplastic alveoli is reduced to 20/60=33%.

[6] = test system: transplantable chondrosarcoma of the rat; test: Activity on the transplantable chondrosarcoma of the rat; type: in vivo, albino rats; details: 400 mg/kg p.o.
Procedure: (B) The activity of compond Ia on tumors was, furthermore, determined on the transplantable chondrosarcoma of the rat according to the following method. The solid tumor of a donor animal was finely minced and suspended in phosphate-buffered sodium chloride solution. 0.5 ml of the 30% tumor suspension was implanted subcutaneously into albino rats. […] Each treatment group embraced 7 rats. Suspensions of compound Ia in arachis oil were administered orally five times per week for 4 weeks. The tumor areas were determined on days 1, 15 and 29. The largest (D) and the smallest (d) diameter of the tumors were determined with the aid of a vernier caliper and the product D·d was determined. The change in this area size was calculated in percentages.

[7] = test system: chemically-induced breast tumors; test: Prevention of chemically-induced (dimethyl-benz(a)anthracene) breast tumors in female rats; type: in vivo, female Sprague-Dawley rats; details: in feed, 11 weeks
Procedure: (A) The activity of compound Ia with respect to the prevention of chemically-induced breast tumors was determined according to the following procedure. Female Sprague-Dawley rats were used in this experiment. The experimental animals were kept under temperature-controlled and light-controlled conditions and had free access to drinking water and feed. At the age of 50 days 15 mg of dimethyl-benz(a)anthracene dissolved in arachis oil were administered to each rat by means of a probang. The treatment with compound Ia began 1 day after the administration of the carcinogen. The body weight of the experimental animals was recorded and the tumors were palpated weekly and measured with a vernier caliper. The volumes were calculated according to the formula D/2·d^2 in which D represents the larger diameter of the tumor ellipsoid and d represents the smaller diameter of the tumor ellipsoid. After 11 weeks the experiment was terminated and evaluated. In this experiment there were used in addition to 30 control animals, which received exclusively normal feed, the following three groups of experimental animals:
1. 33 rats to which were administered daily 30 mg/kg of compound Ia mixed with the feed.
2. 36 rats to which were administered daily 90 mg/kg of compound Ia mixed with the feed.
3. 33 rats to which were administered daily 270 mg/kg of compound Ia mixed with the feed.
The feed mixture was adjusted weekly according to the body weight and the total food intake.

[8] = Rydell et al. 1982; Kistler 1981; Loeliger et al. 1980; cited from earlier work
[9] = Tolerability and toxicity; type: in vivo; details: given intraperitoneally and given orally
[10] = simultaneous treatment, dimethylbenzanthracene (mitotic index 2.6) = 100%
[11] = subsequent treatment, dimethylbenzanthracene (mitotic index 3.1) = 100%
[12] = simultaneous treatment, methylcholanthrene (47% hyperplastic alveoli) = 100%
[13] = subsequent treatment, methylcholanthrene (65% hyperplastic alveoli) = 100%

C/C(=C\c1ccccc1)c1ccc2c(c1)C(C)(C)CCC2(C)C [Compound Ia, 1,2,3,4-tetrahydro-1,1,4,4-tetramethyl-6-[(E)-alpha-methylstyryl]naphthalene]
Hypervitaminosis A phenomena ([1]; e.g. manifestations on skin and mucous membranes): does not exhibit, in particular, any hypervitaminosis A phenomena | Tolerability / toxic symptoms ([1]; in the therapeutically indicated dosages): well tolerated and that no toxic symptoms appear | Teratogenicity ([1]; in vivo): non-teratogenic | Skin irritation ([1]; skin): not irritating to the skin | Relative activity (antimetaplastic) [2]: 66.6% | Epithelium protection effect (=anti-metaplastic effect) reduced by the factor ([2]; compared with all-trans vitamin A acid): 0.67 | Antimetaplastic effect (average effective / protective dosage) [2]: 53.6 µg | activity at 1 µM [3, 10]: 54% | activity at 0.1 µM [3, 10]: 46% | activity at 0.01 µM [3, 10]: 46% | activity at 0.001 µM [3, 10]: 104% | activity at 1 µM [3, 11]: 45% | activity at 0.1 µM [3, 11]: 70% | activity at 0.01 µM [3, 11]: 74% | activity at 0.001 µM [3, 11]: 75% | Effect on the lipid value in blood plasma ([4]; as a sole therapeutically active retinoid): no increase in the lipid value in blood plasma | Lipid-lowering activity ([4]; blood plasma): possesses a lipid-lowering activity | Triglyceride value in blood plasma ([4]; female rats, 10 mg/kg by probang, five times within 2 days (control 69 ± 28)): 56 ± 25 mg/100 ml | Triglyceride value in blood plasma ([4]; female rats, 100 mg/kg by probang, five times within 2 days (control 69 ± 28)): 72 ± 18 mg/100 ml | Triglyceride value in blood plasma ([4]; female rats, 1000 mg/kg by probang, five times within 2 days (control 69 ± 28)): 30 ± 8 mg/100 ml | Triglyceride value in blood plasma ([4]; male rats, 10 mg/kg by probang, five times within 2 days (control 201 ± 39)): 158 ± 56 mg/100 ml | Triglyceride value in blood plasma ([4]; male rats, 100 mg/kg by probang, five times within 2 days (control 201 ± 39)): 173 ± 18 mg/100 ml | Triglyceride value in blood plasma ([4]; male rats, 1000 mg/kg by probang, five times within 2 days (control 201 ± 39)): 41 ± 19 mg/100 ml | activity at 1 µM [5, 12]: 25% | activity at 0.1 µM [5, 12]: 46% | activity at 0.01 µM [5, 12]: 60% | activity at 0.001 µM [5, 12]: 90% | activity at 1 µM [5, 13]: 54% | activity at 0.1 µM [5, 13]: 94% | activity at 0.01 µM [5, 13]: 98% | activity at 0.001 µM [5, 13]: 100% | Tumor area in mm^2, Day 29 ([6]; five times per week for 4 weeks, Day 29 (control 5926)): 1694 mm^2 | Change in tumor area, Day 29 ([6]; five times per week for 4 weeks, Day 29 vs Day 1 (control +394%)): +30% | Tumor area in mm^2, Day 1 ([6]; five times per week, Day 1): 1300 mm^2 | Tumor area in mm^2, Day 15 after the commencement of treatment ([6]; five times per week, Day 15 (control 2880)): 1416 mm^2 | Change in tumor area, Day 15 ([6]; five times per week, Day 15 vs Day 1 (control +140%)): +9% | % tumor-bearing rats ([7]; 30 mg/kg daily oral): 69.6% | Average number of tumors per rat ([7]; 30 mg/kg daily oral): 3.0 | Average tumor volume per rat in mm^3 ([7]; 30 mg/kg daily oral): 4904 mm^3 | % tumor-bearing rats, relative to control (100%) ([7]; 30 mg/kg daily oral): 88% | Average number of tumors per rat, relative to control (100%) ([7]; 30 mg/kg daily oral): 81% | Average tumor volume per rat, relative to control (100%) ([7]; 30 mg/kg daily oral): 77% | % tumor-bearing rats ([7]; 90 mg/kg daily oral): 63.8% | Average number of tumors per rat ([7]; 90 mg/kg daily oral): 1.8 | Average tumor volume per rat in mm^3 ([7]; 90 mg/kg daily oral): 2879 mm^3 | % tumor-bearing rats, relative to control (100%) ([7]; 90 mg/kg daily oral): 80% | Average number of tumors per rat, relative to control (100%) ([7]; 90 mg/kg daily oral): 48% | Average tumor volume per rat, relative to control (100%) ([7]; 90 mg/kg daily oral): 45% | % tumor-bearing rats ([7]; 270 mg/kg daily oral): 39.3% | Average number of tumors per rat ([7]; 270 mg/kg daily oral): 0.7 | Average tumor volume per rat in mm^3 ([7]; 270 mg/kg daily oral): 543 mm^3 | % tumor-bearing rats, relative to control (100%) ([7]; 270 mg/kg daily oral): 50% | Average number of tumors per rat, relative to control (100%) ([7]; 270 mg/kg daily oral): 18% | Average tumor volume per rat, relative to control (100%) ([7]; 270 mg/kg daily oral): 9%

CC1=C(/C=C/C(C)=C/C=C/C(C)=C/C(=O)O)C(C)(C)CCC1 [all-trans vitamin A acid, reference compound]
Relative activity (antimetaplastic) [2]: 100% | Antimetaplastic effect (average effective / protective dosage) [2]: 35.7 µg

CC(=Cc1ccccc1)c1ccc2c(c1)C(C)(C)CCC2(C)C [compound of formula I, 1,2,3,4-tetrahydro-1,1,4,4-tetramethyl-6-(alpha-methylstyryl)naphthalene]
Biological activity in preliminary screening tests [8]: biologically inactive | Toxicity [9]: relatively non-toxic
